Data taken from ChEMBL document CHEMBL1201862, “PubChem BioAssay data set” (2004).
“And” between values parts separate entries of the source, which are not always exact repeats. Equal values may be shown once.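 Test compounds were applied to cells in 96-well plates for 48 hours at 5 doses. GI50 marks 50% less growth.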 The source made the active and inactive calls. No stated cut-off is given here; in the data, active = GI50 up to about 1.1 µM and inactive = higher.

Assays:
Assay in all cases: inhibition of tumour cell growth, NCI panel, 48 h
A549 = system: A549
NCI-H226 = system: NCI-H226
M14 = system: M14
SK-OV-3 = system: SK-OV-3
ACHN = system: ACHN
UACC-257 = system: UACC-257
UACC-62 = system: UACC-62
HCT-116 = system: HCT-116
NCI/ADR-RES = system: NCI/ADR-RES
MDA-MB-435 = system: MDA-MB-435
SW-620 = system: SW-620
OVCAR-8 = system: OVCAR-8
RPMI-8226 = system: RPMI-8226
SF-268 = system: SF-268
OVCAR-5 = system: OVCAR-5
MCF7 = system: MCF7
HL-60 = system: HL-60
CCRF-CEM = system: CCRF-CEM
CAKI-1 = system: CAKI-1
NCI-H522 = system: NCI-H522

| Structure (SMILES) | GI50 (A549) | GI50 (NCI-H226) | GI50 (M14) | GI50 (SK-OV-3) | GI50 (ACHN) | GI50 (UACC-257) | GI50 (UACC-62) | GI50 (HCT-116) | GI50 (NCI/ADR-RES) | GI50 (MDA-MB-435) | GI50 (SW-620) | GI50 (OVCAR-8) | GI50 (RPMI-8226) | GI50 (SF-268) | GI50 (OVCAR-5) | GI50 (MCF7) | GI50 (HL-60) | GI50 (CCRF-CEM) | GI50 (CAKI-1) | GI50 (NCI-H522) |
| --- | --- | --- | --- | --- | --- | --- | --- | --- | --- | --- | --- | --- | --- | --- | --- | --- | --- | --- | --- | --- |
| CC1(C)CC2C(C1=O)C1(C)CCCC2(C)C1=O (stereo not drawn) | > 100 µM (inactive) | > 100 µM (inactive) | > 100 µM (inactive) | > 100 µM (inactive) | > 100 µM (inactive) | > 100 µM (inactive) | > 100 µM (inactive) | > 100 µM (inactive) | > 100 µM (inactive) | > 100 µM (inactive) | > 100 µM (inactive) | > 100 µM (inactive) | > 100 µM (inactive) | > 100 µM (inactive) | > 100 µM (inactive) | > 100 µM (inactive) | > 100 µM (inactive) | > 100 µM (inactive) | > 100 µM (inactive) |  |
| CN(Cc1c[n+]([O-])c2nc(N)nc(N)c2n1)c1ccc(C(=O)NC23CC4CC(CC(C4)C2)C3)cc1 |  | > 100 µM (inactive) | > 100 µM (inactive) | > 100 µM (inactive) | > 100 µM (inactive) | > 100 µM (inactive) | > 100 µM (inactive) | > 100 µM (inactive) | > 100 µM (inactive) | 77.4 µM (inactive) | > 100 µM (inactive) | > 100 µM (inactive) | 93.1 µM (inactive) | 26.3 µM (inactive) | > 100 µM (inactive) | 47.8 µM (inactive) | 31 µM (inactive) | 28.6 µM (inactive) | > 100 µM (inactive) |  |
| CC(=O)C1C(=O)C(=O)N(c2ccc([N+](=O)[O-])cc2[N+](=O)[O-])C1=O (stereo not drawn) | > 100 µM (inactive) | > 100 µM (inactive) | > 100 µM (inactive) | 83.6 µM (inactive) | > 100 µM (inactive) | > 100 µM (inactive) | > 100 µM (inactive) | > 100 µM (inactive) | > 100 µM (inactive) | > 100 µM (inactive) | > 100 µM (inactive) | > 100 µM (inactive) |  | > 100 µM (inactive) | > 100 µM (inactive) | > 100 µM (inactive) | > 100 µM (inactive) | > 100 µM (inactive) | > 100 µM (inactive) | > 100 µM (inactive) |
| O=C(Cc1ccc(Cl)c(Cl)c1)NCC1(N2CCCCC2)CCCCC1 | 41.4 µM (inactive) |  | 18.3 µM (inactive) | > 100 µM (inactive) | > 100 µM (inactive) | 17.8 µM (inactive) | 20.2 µM (inactive) | 40.6 µM (inactive) | 93.5 µM (inactive) | 46.3 µM (inactive) | 54.6 µM (inactive) | 97.3 µM (inactive) | 35.3 µM (inactive) | 85.3 µM (inactive) | 47.1 µM (inactive) | 43.6 µM (inactive) | 41.4 µM (inactive) | 51.3 µM (inactive) | > 100 µM (inactive) | 38 µM (inactive) |
| O=[N+]([O-])c1cccnc1-n1cnc2ccccc21 | > 100 µM (inactive) | > 100 µM (inactive) | > 100 µM (inactive) | > 100 µM (inactive) |  | > 100 µM (inactive) | > 100 µM (inactive) | > 100 µM (inactive) | > 100 µM (inactive) | > 100 µM (inactive) | > 100 µM (inactive) | > 100 µM (inactive) | > 100 µM (inactive) | > 100 µM (inactive) | > 100 µM (inactive) | > 100 µM (inactive) | 48 µM (inactive) | > 100 µM (inactive) | > 100 µM (inactive) |  |
| CCCCCCCCCc1cc(-c2ccc(C=O)s2)sc1-c1ccc(C=O)s1 | 53.1 µM (inactive) | 3.04 µM (inactive) | 8.47 µM (inactive) | 29 µM (inactive) | 30.7 µM (inactive) | 13.6 µM (inactive) | 7.26 µM (inactive) | 16.6 µM (inactive) | 19.6 µM (inactive) | 22.6 µM (inactive) | 30.2 µM (inactive) | 10.4 µM (inactive) | 11.4 µM (inactive) | 34.8 µM (inactive) | 29.5 µM (inactive) | 14.3 µM (inactive) | 16.8 µM (inactive) | 2.23 µM (inactive) |  | 15.9 µM (inactive) |
| CCOC(=O)N/N=C(/N)c1cccc([N+](=O)[O-])c1 | > 100 µM (inactive) |  | > 100 µM (inactive) | > 100 µM (inactive) | > 100 µM (inactive) | > 100 µM (inactive) | > 100 µM (inactive) | > 100 µM (inactive) | > 100 µM (inactive) | > 100 µM (inactive) | > 100 µM (inactive) | > 100 µM (inactive) |  | > 100 µM (inactive) | > 100 µM (inactive) | > 100 µM (inactive) | > 100 µM (inactive) | > 100 µM (inactive) | > 100 µM (inactive) | > 100 µM (inactive) |
| Cc1nc(C(N)=S)sc1C(=O)CC(=O)C(=O)Nc1nc2ccccc2[nH]1 | > 100 µM (inactive) | 11.5 µM (inactive) | > 100 µM (inactive) | > 100 µM (inactive) | > 100 µM (inactive) | > 100 µM (inactive) | > 100 µM (inactive) | > 100 µM (inactive) | > 100 µM (inactive) | > 100 µM (inactive) | > 100 µM (inactive) | > 100 µM (inactive) | > 100 µM (inactive) | > 100 µM (inactive) | > 100 µM (inactive) | > 100 µM (inactive) | 46.8 µM (inactive) |  | > 100 µM (inactive) | > 100 µM (inactive) |
| COC(=O)C1=C(O)C(C(=O)OC)[C@]2(O)[C@H](C(=O)OC)[C@H]1C[C@@H](c1cccc(OC)c1)[C@H]2C(=O)OC (stereo partly drawn) | 23.6 µM (inactive) | 28.8 µM (inactive) | 29.7 µM (inactive) | 28.2 µM (inactive) | 20.4 µM (inactive) | 37.7 µM (inactive) | 16.9 µM (inactive) | 22.2 µM (inactive) | 29.4 µM (inactive) | 17.5 µM (inactive) | 21.5 µM (inactive) | 31.6 µM (inactive) | 19.4 µM (inactive) | 26.1 µM (inactive) | 24.9 µM (inactive) | 23.4 µM (inactive) | 0.207 µM (active) |  | 22.4 µM (inactive) | 6.1 µM (inactive) |
| O=C(CSCC(=O)N/N=C\c1cccc(Br)c1)N/N=C\c1cccc(Br)c1 | 14.1 µM (inactive) | 15.7 µM (inactive) | 20 µM (inactive) | 20.1 µM (inactive) | 13.6 µM (inactive) | 14.1 µM (inactive) | 14.7 µM (inactive) | 14.8 µM (inactive) | 15.9 µM (inactive) | 18.5 µM (inactive) | 27.8 µM (inactive) | 15.3 µM (inactive) |  | 14.1 µM (inactive) | 18.6 µM (inactive) | 33.1 µM (inactive) | 30.3 µM (inactive) |  | 17.9 µM (inactive) | 17 µM (inactive) |
| CC#CC#C/C=C1\C=CC2(OC=CC2OC(C)=O)O1 (stereo not drawn) | 35.2 µM (inactive) and 32.7 µM (inactive) |  | 29.8 µM (inactive) and 18.4 µM (inactive) | > 100 µM (inactive) and > 89.1 µM (inactive) | 10.4 µM (inactive) |  | 18.9 µM (inactive) and 16.4 µM (inactive) |  | 28.6 µM (inactive) | 29.4 µM (inactive) | 24.8 µM (inactive) and 18.8 µM (inactive) | 31.4 µM (inactive) and 17.9 µM (inactive) | 23.2 µM (inactive) | 23.7 µM (inactive) and 19.4 µM (inactive) |  | 14.4 µM (inactive) | 20.2 µM (inactive) and 10.4 µM (inactive) | 8.41 µM (inactive) and 14 µM (inactive) | 15.2 µM (inactive) and > 10 µM (inactive) |  |
| CN(C)CCNC(=O)c1nc([N+](=O)[O-])cn1C | > 100 µM (inactive) |  | > 100 µM (inactive) | > 100 µM (inactive) | > 100 µM (inactive) | > 100 µM (inactive) | > 100 µM (inactive) | > 100 µM (inactive) | > 100 µM (inactive) | > 100 µM (inactive) | > 100 µM (inactive) | > 100 µM (inactive) | > 100 µM (inactive) | > 100 µM (inactive) | > 100 µM (inactive) | > 100 µM (inactive) | > 100 µM (inactive) | > 100 µM (inactive) | > 100 µM (inactive) | > 100 µM (inactive) |
| [N-]=[N+]=Nc1c(Cl)c(Cl)nc2ccccc12 | > 100 µM (inactive) | 66.7 µM (inactive) | > 100 µM (inactive) | > 100 µM (inactive) | 91.4 µM (inactive) | > 100 µM (inactive) | > 100 µM (inactive) | > 100 µM (inactive) | > 100 µM (inactive) | > 100 µM (inactive) | 93.8 µM (inactive) | > 100 µM (inactive) | 62.8 µM (inactive) | > 100 µM (inactive) | > 100 µM (inactive) | 54.5 µM (inactive) |  | 54.5 µM (inactive) | 21.2 µM (inactive) | 71.3 µM (inactive) |
| COC(=O)/C(=C\c1ccco1)P(=O)(OC)OC | 85.1 µM (inactive) | 58.3 µM (inactive) | 55.7 µM (inactive) | 73.6 µM (inactive) | 29.4 µM (inactive) | 65.8 µM (inactive) | 47.6 µM (inactive) | 44 µM (inactive) | 24.5 µM (inactive) | 34.8 µM (inactive) | 89.5 µM (inactive) | 31.5 µM (inactive) | 67.8 µM (inactive) | 97.3 µM (inactive) | 16.2 µM (inactive) | 17.4 µM (inactive) |  | 30.5 µM (inactive) | 25.2 µM (inactive) | 2.49 µM (inactive) |
